Values of other authors in patent US7429577B2, “Augmentation of atypical antipsychotic agent pharmacotherapy with chromium supplementation” (priority 2002, dated 2008).

Key:
[1] = olanzapine treatment of patients
[2] = humans, in particular subjects with plasma cholesterol above the 200 μg/ml level
[3] = healthy volunteers, 200 μg chromium picolinate per day
[4] = obese Caucasian patients with type-II diabetes receiving sulphonylurea and metformin

Row | Compound | levels of insulin, leptin, blood lipids; insulin resistance [1] | blood lipids [2] | LDL cholesterol decreased by [3] [%] | fasting blood glucose decreased by [3] [%] | glycosylated hemoglobin decreased by [3] [%] | total cholesterol decreased by [3] [%] | fasting insulin levels and glucose control [4]
1 | Cc1cc2c(s1)Nc1ccccc1N=C2N1CCN(C)CC1 [olanzapine] | elevated levels of insulin, leptin, and blood lipids, as well as insulin resistance |  |  |  |  |  | 
2 | chromium picolinate |  | efficacious in lowering blood lipids | 11 | 24 | 19 | 13 | lowering fasting insulin levels without impairing glucose control
